{
  "source": "patent US9637470B2",
  "about": "“Treatment for substance use disorders and stress disorders” (Baylor College of Medicine, priority 2013, dated 2017)",
  "key": {"[1]": {"test_system": "synaptic levels of serotonin, norepinephrine, and dopamine in rat prefrontal cortex", "experiment": "Synaptic monoamine levels in rat prefrontal cortex after oral treatment", "type": "in vivo", "conditions": "greater effects on serotonin and norepinephrine than dopamine"}, "dopamine transporter": {"biological_target": "T1, dopamine transporter (Rattus norvegicus, UniProt P23977)", "T1 construct": "from tissue; host or cells: rat synaptosomes", "T1 sequence (P23977 whole entry)": "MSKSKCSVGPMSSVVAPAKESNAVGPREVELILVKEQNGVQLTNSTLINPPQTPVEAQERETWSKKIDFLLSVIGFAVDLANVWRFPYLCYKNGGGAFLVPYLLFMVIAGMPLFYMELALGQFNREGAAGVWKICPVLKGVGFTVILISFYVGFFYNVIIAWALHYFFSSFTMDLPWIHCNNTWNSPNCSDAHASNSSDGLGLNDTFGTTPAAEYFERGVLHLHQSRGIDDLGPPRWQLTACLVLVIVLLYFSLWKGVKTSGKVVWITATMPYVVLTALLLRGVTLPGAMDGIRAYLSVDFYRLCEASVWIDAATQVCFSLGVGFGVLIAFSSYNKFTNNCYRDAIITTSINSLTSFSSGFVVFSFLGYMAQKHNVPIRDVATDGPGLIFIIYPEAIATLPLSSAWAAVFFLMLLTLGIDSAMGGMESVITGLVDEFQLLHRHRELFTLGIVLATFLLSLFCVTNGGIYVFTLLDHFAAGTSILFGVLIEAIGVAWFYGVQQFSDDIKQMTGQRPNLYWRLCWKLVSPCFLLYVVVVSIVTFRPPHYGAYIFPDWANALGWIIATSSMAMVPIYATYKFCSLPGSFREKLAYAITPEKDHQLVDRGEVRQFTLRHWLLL", "experiment": "Monoamine uptake into rat synaptosomes, dopamine", "type": "biochemical"}, "CYP450 2C8": {"biological_target": "CYP450 2C8 (Homo sapiens, UniProt P10632)", "sequence (P10632 whole entry)": "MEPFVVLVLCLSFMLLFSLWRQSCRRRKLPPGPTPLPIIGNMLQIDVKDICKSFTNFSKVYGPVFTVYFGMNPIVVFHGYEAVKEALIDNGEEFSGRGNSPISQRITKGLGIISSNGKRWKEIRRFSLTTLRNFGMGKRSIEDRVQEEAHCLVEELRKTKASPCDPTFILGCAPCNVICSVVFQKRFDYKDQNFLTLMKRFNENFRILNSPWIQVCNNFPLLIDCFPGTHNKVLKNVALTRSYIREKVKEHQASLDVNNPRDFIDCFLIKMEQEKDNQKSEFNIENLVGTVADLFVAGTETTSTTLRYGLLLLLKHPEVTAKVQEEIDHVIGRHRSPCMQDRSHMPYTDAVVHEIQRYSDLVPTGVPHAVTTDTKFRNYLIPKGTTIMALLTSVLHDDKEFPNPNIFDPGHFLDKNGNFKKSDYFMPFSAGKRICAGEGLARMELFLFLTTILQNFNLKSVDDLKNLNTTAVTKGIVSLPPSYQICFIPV", "experiment": "CYP450 inhibition, 2C8", "type": "in vitro ADME"}, "[2]": {"biological_target": "T2, norepinephrine transporter (Rattus norvegicus, UniProt Q63380)", "T2 construct": "from tissue; host or cells: rat synaptosomes", "T2 sequence (Q63380 1-617)": "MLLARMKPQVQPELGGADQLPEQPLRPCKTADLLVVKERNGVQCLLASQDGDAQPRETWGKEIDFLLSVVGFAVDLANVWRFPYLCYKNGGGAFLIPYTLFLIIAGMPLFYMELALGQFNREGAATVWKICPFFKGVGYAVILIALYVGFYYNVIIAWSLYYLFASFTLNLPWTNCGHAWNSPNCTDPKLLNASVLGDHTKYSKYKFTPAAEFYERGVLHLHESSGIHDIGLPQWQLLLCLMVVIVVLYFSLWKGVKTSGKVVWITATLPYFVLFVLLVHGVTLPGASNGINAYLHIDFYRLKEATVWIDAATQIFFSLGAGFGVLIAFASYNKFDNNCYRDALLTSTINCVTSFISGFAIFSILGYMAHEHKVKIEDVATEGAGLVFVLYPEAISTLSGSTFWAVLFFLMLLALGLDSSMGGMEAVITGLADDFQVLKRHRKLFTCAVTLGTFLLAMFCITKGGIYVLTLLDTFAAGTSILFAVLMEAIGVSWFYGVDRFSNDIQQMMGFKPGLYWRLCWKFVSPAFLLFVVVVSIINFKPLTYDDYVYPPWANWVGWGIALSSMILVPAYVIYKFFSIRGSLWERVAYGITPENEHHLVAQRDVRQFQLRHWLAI", "experiment": "Monoamine uptake into rat synaptosomes, norepinephrine", "type": "biochemical"}, "rats [3]": {"test_system": "rats", "experiment": "Respiratory testing in rats", "type": "in vivo, rat", "conditions": "up to 90 mg/kg"}, "humans": {"test_system": "humans", "experiment": "Positive subjective effects in humans (abuse potential)"}, "5-HT2B": {"biological_target": "5-HT2B (Homo sapiens, UniProt P41595)", "sequence (P41595 whole entry, species assumed)": "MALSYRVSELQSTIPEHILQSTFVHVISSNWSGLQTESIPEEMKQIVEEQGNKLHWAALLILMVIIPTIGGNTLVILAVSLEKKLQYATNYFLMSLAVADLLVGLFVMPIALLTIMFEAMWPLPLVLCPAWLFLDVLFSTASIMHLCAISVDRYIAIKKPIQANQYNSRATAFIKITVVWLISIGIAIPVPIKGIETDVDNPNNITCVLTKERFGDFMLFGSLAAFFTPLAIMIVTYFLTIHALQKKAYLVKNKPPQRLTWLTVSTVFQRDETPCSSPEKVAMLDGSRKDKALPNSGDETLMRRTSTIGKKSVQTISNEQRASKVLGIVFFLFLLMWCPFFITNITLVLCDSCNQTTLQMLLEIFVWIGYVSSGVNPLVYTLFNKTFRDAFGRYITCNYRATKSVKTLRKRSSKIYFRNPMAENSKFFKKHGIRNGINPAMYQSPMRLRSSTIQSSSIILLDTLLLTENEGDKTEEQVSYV", "experiment": "Receptor binding studies, 5-HT2B", "conditions": "at 10 uM", "source_text": "(§1) Binding at σ1 is not problematic, as SSRIs are known to have similar activities."}, "CYP 2B6": {"test_system": "CYP 2B6", "experiment": "CYP induction, 2B6", "type": "in vitro ADME"}, "CYP450 3A4": {"biological_target": "CYP450 3A4 (Homo sapiens, UniProt P08684)", "sequence (P08684 whole entry)": "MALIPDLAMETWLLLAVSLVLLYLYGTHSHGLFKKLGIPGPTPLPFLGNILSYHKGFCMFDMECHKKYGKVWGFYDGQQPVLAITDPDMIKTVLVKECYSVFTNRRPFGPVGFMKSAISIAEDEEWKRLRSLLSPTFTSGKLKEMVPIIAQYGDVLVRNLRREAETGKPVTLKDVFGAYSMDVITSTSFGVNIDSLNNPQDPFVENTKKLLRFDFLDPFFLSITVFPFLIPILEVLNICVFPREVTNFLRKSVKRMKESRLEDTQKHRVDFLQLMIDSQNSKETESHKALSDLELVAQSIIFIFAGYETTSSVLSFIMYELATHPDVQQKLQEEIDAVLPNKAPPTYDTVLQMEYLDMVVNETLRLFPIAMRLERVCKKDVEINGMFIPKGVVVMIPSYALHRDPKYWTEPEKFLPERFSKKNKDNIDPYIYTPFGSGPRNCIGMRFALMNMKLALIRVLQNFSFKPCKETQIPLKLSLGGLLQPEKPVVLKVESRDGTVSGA", "experiment": "CYP450 inhibition, 3A4", "type": "in vitro ADME"}, "rats [4]": {"test_system": "rats", "experiment": "Self-administration in rats (abuse potential)", "conditions": "doses up to 10 mg/kg/infusion, cocaine positive control"}, "micronucleus": {"test_system": "micronucleus", "experiment": "Genotoxicity testing, micronucleus"}, "CYP450 1A2": {"biological_target": "CYP450 1A2 (Homo sapiens, UniProt P05177)", "experiment": "CYP450 inhibition, 1A2", "type": "in vitro ADME"}, "[5]": {"experiment": "Metabolic stability in human liver microsomes", "type": "in vitro ADME"}, "dogs": {"test_system": "dogs", "experiment": "Telemetry studies in dogs (ECG, QT)", "conditions": "doses up to 20 mg/kg"}, "CYP 1A2": {"test_system": "CYP 1A2", "experiment": "CYP induction, 1A2", "type": "in vitro ADME"}, "CYP 3A4": {"test_system": "CYP 3A4", "experiment": "CYP induction, 3A4", "type": "in vitro ADME"}, "[6]": {"experiment": "Metabolic stability in hepatocytes", "type": "in vitro ADME, human"}, "hERG channel": {"biological_target": "hERG channel (Homo sapiens, UniProt Q12809)", "sequence (Q12809 whole entry)": "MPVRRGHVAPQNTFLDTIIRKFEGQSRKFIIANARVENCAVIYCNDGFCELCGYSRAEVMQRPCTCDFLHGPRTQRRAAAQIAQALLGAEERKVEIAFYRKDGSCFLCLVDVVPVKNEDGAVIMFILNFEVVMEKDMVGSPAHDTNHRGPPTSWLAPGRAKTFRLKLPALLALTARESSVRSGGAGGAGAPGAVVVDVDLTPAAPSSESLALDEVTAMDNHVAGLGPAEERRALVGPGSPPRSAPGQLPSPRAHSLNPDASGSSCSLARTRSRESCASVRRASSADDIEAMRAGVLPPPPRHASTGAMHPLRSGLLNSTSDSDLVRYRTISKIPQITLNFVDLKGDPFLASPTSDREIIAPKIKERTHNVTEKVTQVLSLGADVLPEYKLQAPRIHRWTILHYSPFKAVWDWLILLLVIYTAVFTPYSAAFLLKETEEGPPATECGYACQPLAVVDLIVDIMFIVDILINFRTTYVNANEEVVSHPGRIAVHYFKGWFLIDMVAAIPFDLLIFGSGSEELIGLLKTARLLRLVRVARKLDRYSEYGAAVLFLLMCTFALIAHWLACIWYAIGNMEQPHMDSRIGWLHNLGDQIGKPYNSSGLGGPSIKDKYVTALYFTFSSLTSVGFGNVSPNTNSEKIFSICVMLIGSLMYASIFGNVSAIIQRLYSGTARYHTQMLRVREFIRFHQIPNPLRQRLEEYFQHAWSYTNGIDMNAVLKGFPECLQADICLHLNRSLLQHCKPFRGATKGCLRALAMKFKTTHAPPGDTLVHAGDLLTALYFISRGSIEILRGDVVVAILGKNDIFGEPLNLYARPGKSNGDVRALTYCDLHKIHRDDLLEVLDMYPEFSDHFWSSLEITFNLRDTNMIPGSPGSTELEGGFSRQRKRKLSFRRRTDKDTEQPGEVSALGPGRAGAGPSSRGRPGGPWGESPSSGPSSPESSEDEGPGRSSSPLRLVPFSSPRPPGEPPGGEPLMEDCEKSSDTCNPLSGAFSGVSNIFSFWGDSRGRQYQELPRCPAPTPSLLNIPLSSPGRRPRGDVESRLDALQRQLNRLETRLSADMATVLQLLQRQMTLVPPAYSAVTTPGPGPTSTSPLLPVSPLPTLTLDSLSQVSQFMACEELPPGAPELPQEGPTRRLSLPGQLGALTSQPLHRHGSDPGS", "experiment": "hERG channel inhibition", "conditions": "accompanied by offsetting inhibition of other ion channels"}, "serotonin transporter": {"biological_target": "T3, serotonin transporter (Rattus norvegicus, UniProt P31652)", "T3 construct": "from tissue; host or cells: rat synaptosomes", "T3 sequence (P31652 whole entry)": "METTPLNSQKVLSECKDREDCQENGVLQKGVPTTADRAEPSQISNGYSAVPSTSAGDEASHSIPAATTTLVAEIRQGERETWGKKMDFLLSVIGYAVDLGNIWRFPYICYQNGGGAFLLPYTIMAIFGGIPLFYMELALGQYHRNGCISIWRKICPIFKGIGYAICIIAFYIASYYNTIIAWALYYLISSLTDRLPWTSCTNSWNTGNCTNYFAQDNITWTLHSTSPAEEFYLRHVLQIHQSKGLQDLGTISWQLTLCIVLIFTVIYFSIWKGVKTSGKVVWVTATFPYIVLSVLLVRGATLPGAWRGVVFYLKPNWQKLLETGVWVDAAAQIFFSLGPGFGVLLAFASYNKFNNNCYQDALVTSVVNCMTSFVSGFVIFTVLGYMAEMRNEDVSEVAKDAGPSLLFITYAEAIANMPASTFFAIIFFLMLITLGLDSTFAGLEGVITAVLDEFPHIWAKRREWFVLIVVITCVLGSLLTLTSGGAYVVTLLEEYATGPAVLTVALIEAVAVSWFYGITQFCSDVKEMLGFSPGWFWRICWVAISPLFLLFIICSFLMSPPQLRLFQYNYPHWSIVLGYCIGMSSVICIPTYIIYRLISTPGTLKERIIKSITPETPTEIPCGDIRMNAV", "experiment": "Monoamine uptake into rat synaptosomes, serotonin", "type": "biochemical"}, "PK parameters in mouse": {"experiment": "PK parameters in mouse", "conditions": "in vivo"}, "CYP450 2C19": {"biological_target": "CYP450 2C19 (Homo sapiens, UniProt P33261)", "sequence (P33261 whole entry)": "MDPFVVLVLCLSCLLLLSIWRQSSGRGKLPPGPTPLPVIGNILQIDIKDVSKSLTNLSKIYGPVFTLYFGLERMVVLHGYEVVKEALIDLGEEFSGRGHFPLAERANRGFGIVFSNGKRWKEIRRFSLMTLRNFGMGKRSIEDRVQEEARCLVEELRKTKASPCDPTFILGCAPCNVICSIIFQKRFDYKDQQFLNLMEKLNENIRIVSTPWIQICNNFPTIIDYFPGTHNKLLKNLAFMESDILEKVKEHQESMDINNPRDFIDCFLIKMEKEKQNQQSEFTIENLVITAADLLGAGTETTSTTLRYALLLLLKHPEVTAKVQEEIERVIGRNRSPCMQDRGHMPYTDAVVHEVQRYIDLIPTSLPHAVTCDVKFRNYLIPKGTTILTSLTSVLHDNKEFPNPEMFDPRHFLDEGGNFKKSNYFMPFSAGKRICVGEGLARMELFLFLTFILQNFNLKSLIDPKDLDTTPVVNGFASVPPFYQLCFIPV", "experiment": "CYP450 inhibition, 2C19", "type": "in vitro ADME"}, "locomotor activity": {"test_system": "locomotor activity", "experiment": "Locomotor activity, screening test for stimulant-like effects", "conditions": "in vivo"}, "CYP450 2C9": {"biological_target": "CYP450 2C9 (Homo sapiens, UniProt P11712)", "experiment": "CYP450 inhibition, 2C9", "type": "in vitro ADME"}, "Sprague-Dawley rats": {"test_system": "Sprague-Dawley rats", "experiment": "Methamphetamine-induced locomotor activation in rats", "type": "in vivo, rat", "conditions": "for locomotor activity, EC2 alone versus saline: 30.0 mg/kg IP; for METH-induced locomotor activation: EC2 30.0 mg/kg IP + METH 1 mg/kg", "source_text": "Adult male Sprague-Dawley rats (n=5-6/group, Harlan Sprague-Dawley Inc., Indianapolis, Ind., USA) were used in this study. Rats were housed three per cage in polypropylene cages in a temperature- and humidity-controlled room maintained on a 12:12 light/dark cycle (lights on at 7:00). Food and water were available ad libitum. Protocols were approved by the Baylor College of Medicine Institutional Animal Care and Use Committee and followed the “Principles of Laboratory Animal Care” (NIH publication No. 85-23, revised 1996). Facilities were accredited by the American Association of Laboratory Animal Care.\nThe TruScan photobeam activity system (Coulbourn Instruments, Allentown, Pa., USA) was used to measure horizontal and vertical distance traveled in centimeters (cm). This system includes a clear arena (16″L×16″W×15.5″D) that had two sets of infrared sensors with one located at floor level and the other 2.5″ above floor level. Data from beam breaks were tabulated and analyzed by a PC computer and using a Coulbourn Instruments software system (TruScan 2.03).\nDrug solutions were prepared fresh daily. To test the effects of EC2 on METH locomotor activation, groups of rats were administered vehicle (saline), METH (1 mg/kg), EC2 (30.0 mg/kg) and EC2+METH. Pretreatment time was 30 min for EC2.\nTesting began on the next day (day 1) and continued for the next five days. Rats were administered drugs according to group and immediately placed in the activity chambers for 60 min.\nData were first assessed with normality (Shapiro-Wilk) and equal variance tests. Distance traveled (cm), which reflects ambulatory activity, and vertical distance (cm) were the primary dependent variables analyzed. Habituation locomotor activity (baseline habituation, HAB) was assessed using a One-Way ANOVA with treatment as the main factor, and Student-Newman-Keuls Method was used for post-hoc comparisons. […] Dunn's method was used for post-hoc multiple comparisons between groups. Data are presented as mean±SEM and significant p values set at <0.05.\nThe preceding example was continued for 5 days. Data from day 5 passed normality and equal variance tests and were analyzed with One-Way ANOVA with treatment as the main factor. Post-hoc pairwise multiple comparison procedures were performed using Student-Newman Keuls Method was used to determine group differences. Data are presented as mean±SEM and significant p values set at <0.05."}, "[7]": {"experiment": "Teratogenicity study (segment II) in rats", "conditions": "rat, in vivo"}, "[8]": {"test_system": "56 receptors, channels, and transporters", "experiment": "Receptor binding studies, panel of 56 receptors, channels, and transporters", "conditions": "10 μM; all sites except σ1 and 5-HT2B", "source_text": "as §1"}},
  "note": "Where two headings read alike, the source gives them in different places.",
  "data": [
    {"smiles": "c1ccc2cc([C@H]([C@H]3CCCNC3)n3ncnn3)ccc2c1", "note": "[Example Compound 2, (3S)-3-[(S)-naphthalen-2-yl(2H-tetrazol-2-yl)methyl]piperidine]", "values": [
      {"measurement": "effect on synaptic levels of serotonin, norepinephrine, and dopamine", "setting": "[1]", "value": "clear effects on all three monoamines"},
      {"measurement": "IC50", "setting": "dopamine transporter", "value": 74, "unit": "nM"},
      {"measurement": "inhibition of CYP450 2C8", "setting": "CYP450 2C8", "value": "does not inhibit"},
      {"measurement": "IC50", "setting": "[2]", "value": 65, "unit": "nM"},
      {"measurement": "respiratory testing", "setting": "rats [3]", "value": "negative"},
      {"measurement": "positive subjective effects in humans", "setting": "humans", "value": "does not produce positive subjective effects"},
      {"measurement": "inhibition of binding at 5-HT2B", "setting": "5-HT2B", "value": 56, "unit": "% inhibition"},
      {"measurement": "induction of CYP 2B6", "setting": "CYP 2B6", "value": "does not induce"},
      {"measurement": "inhibition of CYP450 3A4", "setting": "CYP450 3A4", "value": "does not inhibit"},
      {"measurement": "self-administration", "setting": "rats [4]", "value": "not self-administered"},
      {"measurement": "genotoxicity, micronucleus", "setting": "micronucleus", "value": "negative"},
      {"measurement": "inhibition of CYP450 1A2", "setting": "CYP450 1A2", "value": "does not inhibit"},
      {"measurement": "metabolic stability", "setting": "[5]", "value": "high"},
      {"measurement": "effects on ECG or QT", "setting": "dogs", "value": "no effects"},
      {"measurement": "induction of CYP 1A2", "setting": "CYP 1A2", "value": "does not induce"},
      {"measurement": "induction of CYP 3A4", "setting": "CYP 3A4", "value": "does not induce"},
      {"measurement": "metabolic stability", "setting": "[6]", "value": "high"},
      {"measurement": "hERG channel inhibition", "setting": "hERG channel", "value": "moderate"},
      {"measurement": "IC50", "setting": "serotonin transporter", "value": 37, "unit": "nM"},
      {"measurement": "half-life", "setting": "PK parameters in mouse", "value": 1.9, "unit": "h"},
      {"measurement": "inhibition of CYP450 2C19", "setting": "CYP450 2C19", "value": "does not inhibit"},
      {"measurement": "increases in locomotor activity", "setting": "locomotor activity", "value": "does not cause increases"},
      {"measurement": "inhibition of CYP450 2C9", "setting": "CYP450 2C9", "value": "does not inhibit"},
      {"measurement": "locomotor activity, EC2 alone versus saline", "setting": "Sprague-Dawley rats; day 5, both activity measures", "value": "did not differ from saline"},
      {"measurement": "locomotor activity, EC2 alone versus saline", "setting": "Sprague-Dawley rats; over 5 days, both activity measures", "value": "did not differ from saline"},
      {"measurement": "METH-induced locomotor activation", "setting": "Sprague-Dawley rats; day 5, more apparent on vertical distance", "value": "significantly attenuated"},
      {"measurement": "METH-induced locomotor activation", "setting": "Sprague-Dawley rats; over 5 days, more apparent on vertical distance", "value": "significantly attenuated"},
      {"measurement": "NOAEL", "setting": "[7]; read-out: NOAEL fetal development", "value": 90, "unit": "mg/kg/day"},
      {"measurement": "NOAEL", "setting": "[7]; read-out: NOAEL fetal growth", "value": 30, "unit": "mg/kg/day"},
      {"measurement": "NOAEL", "setting": "[7]; read-out: NOAEL fetal viability", "value": 90, "unit": "mg/kg/day"},
      {"measurement": "NOAEL", "setting": "[7]; read-out: NOAEL maternal toxicity", "value": 30, "unit": "mg/kg/day"},
      {"measurement": "binding at the other sites of the panel", "setting": "[8]", "value": "no significant binding"}
    ]}
  ]
}
